Where no end group is shown, it is not given here.
What was measured:
ECM components = type: cell-based, Staphylococcus aureus; conditions: constructs expressed in LUG960 (RN6390 in b7), P-luk-PV promoter; ECM proteins 5 µg/mL, absorbance at 540 nm
[1] = tested on: Panton Valentine Leukocidin; assay: Quantification of Panton Valentine Leukocidin production by ELISA; type: cell-based, Staphylococcus aureus; conditions: supernatant after 24 h of culture, mean±SD, in duplicate
Procedure: The level of PVL production in the supernatant after 24 h of staphylococcal culture was determined in duplicate by using an ELISA method as described previously.
The level of PVL production in the supernatant after 24h of culture was determined in duplicate by using an ELISA method as described previously.

[2] = type: physicochemical; conditions: purified synthetic peptide
Text: To gain insight into the structure and lipotropic properties of the LukS-PV and LukF-PV signal peptides, the solubility and conformation of the corresponding purified synthetic peptides were examined under various stabilizing conditions by using either cosolvents (TFE: water mixtures, SDS) that are very useful tools for probing the propensity of peptides for secondary structure formation ([11], [12], and references therein), or membrane mimetic media including lysolipid (lysophosphatidyl choline, LPC), and detergents (DM, LPC and DPC). […] TFE is known to solubilize hydrophobic peptides as monomers and to stabilize the folding of peptidic sequences with an intrinsic propensity to adopt an α-helical structure. […] Various CD deconvolution methods used indicate a predominant α-helix content ranging from 64 to 77% in SDS and in TFE 50% for LukS-PV signal peptide, but only of about 40% for LukF-PV signal peptide in both media. […] These findings are consistent with the computer prediction that this peptide could easily aggregate (score of 0.8 with Zyggregator [13]). […] Taken together, these analyses indicate that after its processing by the signal peptidase, the LukS-PV signal peptide could readily leave the membrane translocon context and incorporate to the cytosolic or the extracellular aqueous environment.

matrix protein = assay: Effect of heparinase III digestion of ECM proteins on bacterial adhesion; type: cell-based, Staphylococcus aureus; conditions: increasing concentrations added to coated wells, 1 h at room temperature, before adhesion assay
Procedure: Figure 4 Inhibition of adhesion to collagen IV by heparinase. Isogenic strains of Staphylococcus aureus examined for their binding capacity (Y-axis, absorbance reading at 540 nm) to collagen IV (Sigma) coated on 96-well plates, at concentrations of 5 µg/mL. Heparinase III was added at increasing concentrations (X-axis) to collagen IV (Sigma) before the adhesion assay. Parental (LUG960) indicates the genetic background in which the genetic modifications were made; LukS-PV SP, parental carrying a plasmid encoding the LukS-PV signal peptide. The vertical lines indicate the standard deviations.
To test the effect of digestion of ECM proteins with heparinase, increasing concentrations of heparinase III (Sigma) were added to laminin, elastin and type V, IV, I collagens (Sigma) coated wells, and incubated for 1 h at room temperature. After treatment, the wells were washed with 200 µL PBS 3 times, blocked with 200 µL of 0.2% BSA in PBS at 4°C for 2 h, and used in the adhesion assay.

## LukS-PV ΔSP: plasmid encoding LukS-PV without signal peptide (MVKKRLLAATLSLGIITPIATSFHESKA)
ECM components
  adhesion phenotype of expressing strain: basal level of attachment
[1]
  PVL levels: 2.39 ± 0.04 µg/mL

## MVKKRLLAATLSLGIITPIATSFHESKA [LukS-PV signal peptide]
[2]
  solubility in water: largely soluble in water

B1: heparinase III: heparinase III (Sigma) (protein, UniProt Q59289 25-659, looked up)
Heparin-sulfate lyase: QSSSITRKDFDHINLEYSGLEKVNKAVAAGNYDDAAKALLAYYREKSKAREPDFSNAEKPADIRQPIDKVTREMADKALVHQFQPHKGYGYFDYGKDINWQMWPVKDNEVRWQLHRVKWWQAMALVYHATGDEKYAREWVYQYSDWARKNPLGLSQDNDKFVWRPLEVSDRVQSLPPTFSLFVNSPAFTPAFLMEFLNSYHQQADYLSTHYAEQGNHRLFEAQRNLFAGVSFPEFKDSPRWRQTGISVLNTEIKKQVYADGMQFELSPIYHVAAIDIFLKAYGSAKRVNLEKEFPQSYVQTVENMIMALISISLPDYNTPMFGDSWITDKNFRMAQFASWARVFPANQAIKYFATDGKQGKAPNFLSKALSNAGFYTFRSGWDKNATVMVLKASPPGEFHAQPDNGTFELFIKGRNFTPDAGVFVYSGDEAIMKLRNWYRQTRIHSTLTLDNQNMVITKARQNKWETGNNLDVLTYTNPSYPNLDHQRSVLFINKKYFLVIDRAIGEATGNLGVHWQLKEDSNPVFDKTKNRVYTTYRDGNNLMIQSLNADRTSLNEEEGKVSYVYNKELKRPAFVFEKPKKNAGTQNFVSIVYPYDGQKAPEISIRENKGNDFEKGKLNLTLTINGKQQLVLVP
Matrix protein
  effect of heparinase on bacterial adhesion: the bacterial adhesion decreased in a dose-dependent manner
